Source: patent US10023615B2, “Efficient transport into white blood cells” (priority 2008, dated 2018)
Square brackets hold non-standard residues; d marks the D form. Ends that are not written are not given here.

Columns and labels:
[1] = Tissue distribution of C14 radiolabeled D-TAT-tagged peptides; assay type: in vivo, mouse; settings: 1 mg/kg s.c., i.v., i.p.; 72 hours after injection
Method: Mice were treated via three different routes of administration (s.c., i.v., i.p.) with radiolabeled peptides with C^14 (1 mg/kg). Animals were sacrificed 72 hours after injection and processed for immunoradiography. […] This illustrates that the transporter D-TAT is responsible for the tissue distribution.

U937 cells = experiment: Intracellular concentration of transporter constructs subsequent to uptake into U937 cells; assay type: cell-based; settings: for intracellular concentration of transporter construct subsequent to uptake: U937 cells, 10 μM construct
Method: 9. Determination of Intracellular Concentration of Specific Transporter Constructs Subsequent to Uptake (Internalization) of these Peptides into U937 Cells • According to a further experiment, the concentration of specific transporter constructs subsequent to uptake (internalization) of these peptides into U937 cells were determined.

Lymphocytes B (CD19) = experiment: Flow cytometry of FITC-transporter content in primary human white blood cells: lymphocytes B; assay type: cell-based; settings: 1 uM, 30 min
From the text: (§1) Primary human white blood cells (WBC) were obtained from whole blood after red blood cell lysis. […] Cells containing D-TAT-FITC and r3-L-TAT-FITC were finally analysed by flow cytometry to measure their respective transporter content.

[2] = system: dissociated cortical primary neurons; experiment: Confocal microscopy of FITC-labeled TAT derivative transporters in cortical primary neurons; assay type: cell-based, rat; settings: 500 nM, 24 hours
Method: 8.4 Internalization Experiments and Analysis • The time dependant internalization (uptake) of FITC-labeled TAT derived transporter constructs into cells of the HL-60 cell line was carried out with materials and methods as described above. • Briefly, HL-60 cells were incubated 30 min, 1, 6 or 24 hours with 10 μM of the TAT-derivative transporters. The cells were then washed twice with an acidic buffer (0.2 M Glycin, 0.15 M NaCl, pH 3.0) and twice with PBS. Cells were broken by the addition of RIPA lysis buffer. The relative amount of internalized peptide was then determined by reading the fluorescence intensity (Fusion Alpha plate reader; PerkinElmer) of each extract followed by background substraction and protein content normalization. […] The dissociated cortical primary neurons from P2 Sprague Dawley rats were cultured 12 days in neurobasal medium before exposure 24 hours to 500 nM of the FITC-labeled • TAT derivative transporters. The cells were washed five times with PBS on ice and then mounted in fluorsave mounting medium without prior fixation. Acquisitions were performed on LSM510 metaconfocal microscope (Zeiss). Images were processed with LSM510 software and mounted using Adobe photoshop. Visualization by confocal microscopy of labeling with 500 nM FITC-transporters (A: green). Nuclei were stained by Hoechst (B: blue).

Lymphocytes T (CD3) = experiment: Flow cytometry of FITC-transporter content in primary human white blood cells: lymphocytes T; assay type: cell-based; settings: 1 uM, 30 min
From the text: as §1

Monocytes (CD14) = experiment: Flow cytometry of FITC-transporter content in primary human white blood cells: monocytes; assay type: cell-based; settings: 1 uM, 30 min
From the text: as §1

U937 lymphoma cells = experiment: Uptake (internalization) of FITC-labeled TAT derived transporter constructs in U937 cells, fluorescence plate reader; assay type: cell-based
Method: Cells were plated into poly-DL-lysine coated dishes at a concentration of 1×10^6 cells/ml. Plates were then incubated for 24 h at 37° C., 5% CO2, and 100% relative humidity prior to the addition of a known concentration of peptide. After peptide addition, the cells were incubated 30 min, 1, 6 or 24 h at 37° C., 5% CO2, and 100% relative humidity. Cells were then washed twice with an acidic buffer (Glycin 0.2 M, NaCl 0.15 M, pH 3.0) in order to remove the cell-surface adsorbed peptide (see Kameyama et al., (2007), Biopolymers, 88, 98-107). […] The cell wash using an acidic buffer was thus employed to remove the cell-surface adsorbed peptides. […] Cells were broken by the addition of the RIPA lysis buffer. The relative amount of internalized peptide was then determined by fluorescence after background substraction and protein content normalization. • The steps are thus: 1. […] Analysis of peptide internalization with a fluorescence plate reader • f) Cell Culture and Peptide Treatment • (1) The 6 well culture plates are coated with 3 ml of Poly-D-Lys (Sigma P9011; 25 μg/ml in PBS), the 24 well plates with 600 μl and the 96 well plates with 125 μl and incubated for 4 h at 37° C., CO2 5% and 100% relative humidity. • (2) After 4 hours the dishes were washed twice with 3.5 ml PBS, 700 μl or 150 μl PBS for the 6, 24 or 96 well plates, respectively. • (3) The cells were plated into the dishes in 2.4 ml medium (RPMI) at plating densities of 1′000′000 cells/ml for suspension cells. After inoculation, the plates were incubated at 37° C., 5% CO2 and 100% relative humidity for 24 hours prior to the addition of the peptide. Adherent cells should be at a density of 90-95% the day of treatment and were plated in DMEM :
• (4) The cells were treated with the desired concentration of FITC labeled peptide (stock solution at a concentration of 10 mM in H2O). • (5) Following peptide addition, the cells were incubated 0 to 24 hours (e.g. 30 min, 1, 6 or 24 hours) at 37° C., CO2 5% and 100% relative humidity. • Acidic Wash and Cellular Extracts: • (6) The extracts were cooled on ice. • Suspension cells (or cells, which don attach well to the dish): • Transfer the cells in ? […] To recover the maximum of cells, wash the dish with 1 ml of PBS. • Harvest the cells 2 min at 2400 rpm max. • Suspend the cells in 1 ml cold PBS. • Transfer the cells into a coated “Eppendorf tube” (coated with 1 ml of poly D-Lys for 4 hours and washed twice with 1 ml PBS). • Wash three times with 1 ml of cold acidic wash buffer and centrifuge 2 min at 2400 rpm max. Beware of the spreading of the cells in the “eppendorf”. • Wash twice with 1 ml cold PBS to neutralize. • Add 50 μl of lysis RIPA Buffer. • Incubate 30 min-1 h on ice with agitation. • Adherent Cells: • Wash three times with 3 ml, 1 ml or 200 μl (for 6, 24 or 96 well plates, respectively) of cold acidic wash buffer. Beware of the cells who detach from the dish. • Wash twice with 1 ml cold PBS (for 6, 24 or 96 well plates, respectively) to neutralize. • Add 50 μl of lysis RIPA buffer. • Incubate 30 min-1 h on ice with agitation. • Scrap the cells with a cold scrapper. The 24 and 96 well plates were directly centrifuged at 4000 rpm at 4° for 15 min to remove the cellular debris. Then the supernatants (100 or 50 ml respectively for the 24 or 96 well plates) were directly transferred in a dark 96 well plated.

[3] = system: HepG2 hepatocarcinoma, HCT-116 tumoral colon; experiment: Uptake of FITC-labeled TAT derived transporter constructs in HepG2 and HCT-116; assay type: cell-based, human; settings: 10 μM, 24 h
Neutrophils (CD15) = experiment: Flow cytometry of FITC-transporter content in primary human white blood cells: neutrophils; assay type: cell-based; settings: 1 uM, 30 min
From the text: as §1

Hela cells = experiment: Internalization of r3-L-TAT-derived transporters in Hela cells; assay type: cell-based; settings: 2, 6 or 24 hours; 0, 500 nM, 1 mM or 10 mM
From the text: The time dependant internalization (uptake) of FITC-labeled TAT derived transporter constructs into cells of the HL-60 cell line was furthermore carried out with materials and methods as described above using sequences of the 96-FITC-labeled D-TAT derivative transporters. These sequences are listed below.
• In the above table D amino acids are indicated by a small “d” prior to the respective amino acid residue (e.g. dR=D-Arg). • For a few sequences synthesis failed in the first approach unfortunately due to technical reasons. […] Hela cells were incubated 24 hours in 96 well plate with […] of the r3-L-TAT-derived transporters. Alternatively, human lymphoma cells are used. The cells were then washed twice with an acidic buffer (0.2M Glycin, 0.15M NaCl, pH 3.0) and twice with PBS. Cells were broken by the addition of RIPA lysis buffer. […] Briefly, Hela cells were incubated 2, 6 or 24 hours in 24 well plate with increasing dose of the r3-L-TAT-derivative transporters (0, 500 nM, 1 mM or 10 mM). The cells were then washed twice with an acidic buffer (0.2M Glycin, 0.15M NaCl, pH 3.0) and twice with PBS. Cells were broken by the addition of RIPA lysis buffer.

For rrrqrrkkr [D-TAT], the “tissue distribution (accumulation)” value [1] was “in the liver, spleen, and bone marrow predominantly”, the “intracellular concentration of transporter construct subsequent to uptake” value (from here on “intracellular concentration … to uptake”) (U937 cells; 2 h) was 2.00 and the “intracellular concentration … to uptake” value (U937 cells; 4 h) was 2.24. For the same substance, the “intracellular concentration … to uptake” value (U937 cells; 6 h) was 3.55, the “intracellular concentration … to uptake” value (U937 cells; 24 h) was 17.3 and the “binding to cell population” value (Lymphocytes B (CD19)) was “less efficiently to lymphocyte B cells”. The “internalization seen by confocal microscopy” value [2] was “internalized into the cytoplasm of the non stressed neurons”, the “binding to cell population” value (Lymphocytes T (CD3)) was “seeming to bind more efficiently to lymphocyte T than the r3-L-TAT” and the “binding to cell population” value (Lymphocytes T (CD3); listed as dTAT) was “binds to monocytes, neutrophils and lymphocyte T cells”. The “binding to cell population” value (Monocytes (CD14)) was “binds to monocytes, neutrophils and lymphocyte T cells”, the “uptake (internalization)” value (U937 lymphoma cells; 10 μM, U937, Lymphoma, 24 h) was “most efficient” and the “HSPG dependency of uptake (internalization)” value (U937 lymphoma cells; 500 nm over 24 hours in U937 cells) was “HSPG-dependent”. For the same substance, the “uptake (internalization)” value [3] was “most efficient” and the “binding to cell population” value (Neutrophils (CD15)) was “binds to monocytes, neutrophils and lymphocyte T cells”.

In the case of “rYKRrQRRr ([dR]YKR[dR]QRR[dR]) [TAT(s2-91)]”, the “accumulation in the cell (intracellular concentration)” value (U937 cells; 10 μM in medium) was “significantly higher than the concentration of the transporter construct in the medium”, the “intracellular concentration … to uptake” value (U937 cells; 2 h) was 3.16 and the “intracellular concentration … to uptake” value (U937 cells; 4 h) was 4.27. For the same substance, the “intracellular concentration … to uptake” value (U937 cells; 6 h) was 4.68, the “intracellular concentration … to uptake” value (U937 cells; 24 h) was 50 and the “transporter activity and kinetics of transport activity” value (Hela cells) was “highest transporter activity”.
